Among the data in the SangsterLogP compilation are logP values, retold here.

In turn, `O=C(O)CCc1ccc2c(c1O)C(=O)c1c(O)cccc1C2` registered a logP of 3.78.
The figure for `COC(=O)CCCc1ccc2c(c1O)C(=O)c1c(O)cccc1C2` is 4.63; for `COC(=O)CCCCc1ccc2c(c1O)C(=O)c1c(O)cccc1C2` it is 4.97; for `O=C(O)CCCCCc1ccc2c(c1O)C(=O)c1c(O)cccc1C2` it is 4.6.
The compound `O=C1c2c(O)cccc2Cc2ccc(C(Cc3ccccc3)C(=O)O)c(O)c21` (stereo not drawn) came in with a logP of 4.11.
The figure for `COC(=O)C(C)c1ccc2c(c1O)C(=O)c1c(O)cccc1C2` (stereo not drawn) is 4.16; for `COC(=O)C(Cc1ccccc1)c1ccc2c(c1O)C(=O)c1c(O)cccc1C2` (stereo not drawn) it is 4.86.
The figure for `COC(=O)Cc1ccc2c(c1O)C(=O)c1c(O)cccc1C2` is 3.93; for `O=C1c2c(O)cccc2Cc2ccc(C(CCc3ccccc3)C(=O)O)c(O)c21` (stereo not drawn) it is 4.33; for `COC(=O)C(CCc1ccccc1)c1ccc2c(c1O)C(=O)c1c(O)cccc1C2` (stereo not drawn) it is 5.17.
As to `COC(=O)C(C)C(C)c1ccc2c(c1O)C(=O)c1c(O)cccc1C2` (stereo not drawn), the log partition coefficient (logP) worked out at 4.77.
For `CC(C(=O)O)C(C)c1ccc2c(c1O)C(=O)c1c(O)cccc1C2` (stereo not drawn) the value was 3.9; for `O=C(O)CCCc1ccc2c(c1O)C(=O)c1c(O)cccc1C2`, 3.91.
For `CC(C(=O)O)c1ccc2c(c1O)C(=O)c1c(O)cccc1C2` (stereo not drawn) the value was 3.4.
With `COC(=O)CCCCCc1ccc2c(c1O)C(=O)c1c(O)cccc1C2`, the log partition coefficient (logP) amounted to 5.34.
Compound `O=C(O)CCCCc1ccc2c(c1O)C(=O)c1c(O)cccc1C2` gave a logP of 4.22.
For `COC(=O)CCc1ccc2c(c1O)C(=O)c1c(O)cccc1C2` the value was 4.55.
For `COC(=O)c1ccc(C(=O)c2ccc3c(c2O)C(=O)c2c(O)cccc2C3)cc1` the value was 5.22.

For orientation: logP means the decadic logarithm of the partition coefficient of the neutral form, usually between octanol and water.
